Data taken from patent EP0255256A2, “Antibiotics produced by actinomadura parvosata” (SMITHKLINE BECKMAN CORPORATION, priority 1986, dated 1988).
Values after ≈ are worked out from the molar mass of the structure shown.

Tests used:
A. parvosata = assay: Susceptibility of A. parvosata to antibiotic disks; type: cell-based, Actinomadura parvosata; details: BBL susceptibility disks on nutrient agar; rifampin 5 ug, penicillin 10 U; 1 week at 28°C
Experimental: Susceptibility of A. parvosata to antibiotics was examined by placing BBL susceptibility disks on nutrient agar plates seeded with A. parvosata. Plates were placed at 4°C for 1 hour to permit diffusion of the antibiotics. Diameters of the zones of inhibition were measured after incubation for 1 week at 28°C.

Staph. aureus HH127 [1] = assay: MIC, standard microtiter assay; type: cell-based; details: Staphylococcus aureus; Staph. aureus HH127; Table IX; read-out: MIC
Experimental: (§1) The in vitro minimal inhibitory concentration (MIC) of the AAJ-271 complex and its factors, and vancomycin were determined for a number of microorganisms using the standard microtite'r assay procedures. The results are shown in the following tables, each of which represents a different production run of the complex.
(§2) The in vitro minimal inhibitory concentration (MIC) and the in vitro minimal bactericidal concentration (MBC) of the AAJ-271 aglycones, pseudo-aglycone and vancomycin were determined for a number of microorganisms using the standard microtiter assay procedures.

Staph. epidermidis 2265 [2] = assay: MIC, standard microtiter assay; type: cell-based; details: Staphylococcus epidermidis; Staph. epidermidis 2265; Table IX; read-out: MIC
Experimental: as §1, §2

Strep. faecalis 34358 [3] = assay: MIC, standard microtiter assay; type: cell-based; details: Enterococcus faecalis; Strep. faecalis 34358; Table IX; read-out: MIC
Experimental: as §1, §2

Staph. aureus 2620 [4] = assay: MIC, standard microtiter assay; type: cell-based; details: Staphylococcus aureus; Staph. aureus 2620; Table IX; read-out: MIC
Experimental: as §1, §2

Strep. faecalis 657 [5] = assay: MIC, standard microtiter assay; type: cell-based; details: Enterococcus faecalis; Strep. faecalis 657; Table IX; read-out: MIC
Experimental: as §1, §2

Staph. haemolyticus 651 [6] = assay: MIC, standard microtiter assay; type: cell-based; details: Staphylococcus haemolyticus; Staph. haemolyticus 651; Table IX; read-out: MIC
Experimental: as §1, §2

Staph. aureus 675 [7] = assay: MIC, standard microtiter assay; type: cell-based; details: Staphylococcus aureus; Staph. aureus 675; Table IX; read-out: MIC
Experimental: as §1, §2

Staph. epidermidis 2479 [8] = assay: MIC, standard microtiter assay; type: cell-based; details: Staphylococcus epidermidis; Staph. epidermidis 2479; Table IX; read-out: MIC
Experimental: as §1, §2

Staph. aureus HH127 [9] = assay: MBC, standard assay procedures; type: cell-based; details: Staphylococcus aureus; Staph. aureus HH127; Table IX; read-out: MBC
Experimental: (§3) The in vitro minimal bactericidal concentration (MBC) of the AAJ-271 C, C2 and C3 factors and vancomycin were determined for a number of microorganisms using standard assay procedures.
as §2

Staph. epidermidis 2265 [10] = assay: MBC, standard assay procedures; type: cell-based; details: Staphylococcus epidermidis; Staph. epidermidis 2265; Table IX; read-out: MBC
Experimental: as §3, §2

Strep. faecalis 34358 [11] = assay: MBC, standard assay procedures; type: cell-based; details: Enterococcus faecalis; Strep. faecalis 34358; Table IX; read-out: MBC
Experimental: as §3, §2

Staph. aureus 2620 [12] = assay: MBC, standard assay procedures; type: cell-based; details: Staphylococcus aureus; Staph. aureus 2620; Table IX; read-out: MBC
Experimental: as §3, §2

Strep. faecalis 657 [13] = assay: MBC, standard assay procedures; type: cell-based; details: Enterococcus faecalis; Strep. faecalis 657; Table IX; read-out: MBC
Experimental: as §3, §2

Staph. haemolyticus 651 [14] = assay: MBC, standard assay procedures; type: cell-based; details: Staphylococcus haemolyticus; Staph. haemolyticus 651; Table IX; read-out: MBC
Experimental: as §3, §2

Staph. aureus 675 [15] = assay: MBC, standard assay procedures; type: cell-based; details: Staphylococcus aureus; Staph. aureus 675; Table IX; read-out: MBC
Experimental: as §3, §2

Staph. epidermidis 2479 [16] = assay: MBC, standard assay procedures; type: cell-based; details: Staphylococcus epidermidis; Staph. epidermidis 2479; Table IX; read-out: MBC
Experimental: as §3, §2

Molecule	susceptibility of A. parvosata to antibiotic disks (zones of inhibition) (A. parvosata)	MIC (Staph. aureus HH127 [1])	MIC (Staph. epidermidis 2265 [2])	MIC (Strep. faecalis 34358 [3])	MIC (Staph. aureus 2620 [4])	MIC (Strep. faecalis 657 [5])	MIC (Staph. haemolyticus 651 [6])	MIC (Staph. aureus 675 [7])	MIC (Staph. epidermidis 2479 [8])	MBC (Staph. aureus HH127 [9])	MBC (Staph. epidermidis 2265 [10])	MBC (Strep. faecalis 34358 [11])	MBC (Staph. aureus 2620 [12])	MBC (Strep. faecalis 657 [13])	MBC (Staph. haemolyticus 651 [14])	MBC (Staph. aureus 675 [15])	MBC (Staph. epidermidis 2479 [16])
penicillin	resistant	–	–	–	–	–	–	–	–	–	–	–	–	–	–	–	–
CO[C@H]1/C=C/O[C@@]2(C)Oc3c(C)c(O)c4c(O)c(c(/C=N/N5CCN(C)CC5)c(O)c4c3C2=O)NC(=O)/C(C)=C\C=C\[C@H](C)[C@H](O)[C@@H](C)[C@@H](O)[C@@H](C)[C@H](OC(C)=O)[C@@H]1C [rifampin]	resistant	–	–	–	–	–	–	–	–	–	–	–	–	–	–	–	–
CNC1C(=O)NC2Cc3ccc(cc3)Oc3cc4cc(c3O)Oc3ccc(cc3Cl)C(O)C3NC(=O)C(NC(=O)C4NC(=O)C(NC2=O)c2cc(cc(O)c2Cl)Oc2cc1ccc2O)c1ccc(O)c(c1)-c1c(O[C@H]2O[C@H](CO)[C@@H](O)[C@H](O)[C@@H]2O)cc(O)cc1C(C(=O)O)NC3=O (stereo partly drawn) [AAJ 271 Pseudo-aglycone]	–	3.1 µg/mL (≈ 2.25 µM)	12.5 µg/mL (≈ 9.09 µM)	3.1 µg/mL (≈ 2.25 µM)	3.1 µg/mL (≈ 2.25 µM)	3.1 µg/mL (≈ 2.25 µM)	25 µg/mL (≈ 18.2 µM)	3.1 µg/mL (≈ 2.25 µM)	6.3 µg/mL (≈ 4.58 µM)	6.3 µg/mL (≈ 4.58 µM)	12.5 µg/mL (≈ 9.09 µM)	3.1 µg/mL (≈ 2.25 µM)	3.1 µg/mL (≈ 2.25 µM)	3.1 µg/mL (≈ 2.25 µM)	25 µg/mL (≈ 18.2 µM)	3.1 µg/mL (≈ 2.25 µM)	6.3 µg/mL (≈ 4.58 µM)
